Results reported in patent US12391706B2, “Multi-target tyrosine kinase inhibitor” (SHENZHEN NEPTUNUS PHARMACEUTICAL RESEARCH INSTITUTE CO., …, priority 2020, dated 2025).

Test system: not listed separately
Experiment: Solubility test (water), Chinese Pharmacopoeia 2015
Format: physicochemical
Conditions: 25° C.±2° C., dissolution within 30 minutes
Method: The series of compounds synthesized in Examples 1-24 were subjected to solubility test (water), according to the solubility test methods in Chinese Pharmacopoeia, 2015 Edition. The specific test operations and evaluation criteria are as follows: An appropriate amount (1 mg-10 mg) of finely powdered compound was weighed, placed in a certain volume of solvent at 25° C.±2° C., and shaken vigorously for 30 seconds every 5 minutes; the dissolution within 30 minutes was observed. It was considered completely dissolved if there were no visible particles or droplets of the solute. [table]

SMILES | Water solubility test Result
O=C(O)CCC(=O)OCCn1cc(-c2cc3nccc(Oc4ccc(NC(=O)C5(C(=O)Nc6ccc(F)cc6)CC5)cc4F)c3s2)cn1 [td32-4P1, 4-(2-(4-(7-(2-fluoro-4-(1-((4-fluorophenyl)carbamoyl)cyclopropane-1-carboxamide)phenoxy)thieno[3,2-b]pyridin-2-yl)-1H-pyrazolyl-1-yl)ethoxy)-4-oxobutyric acid] | F (1 g of solute is soluble in 1000~10000 mL of sovent)
CC(N)C(=O)OCCn1cc(-c2cc3nccc(Oc4ccc(NC(=O)C5(C(=O)Nc6ccc(F)cc6)CC5)cc4F)c3s2)cn1 (centres unmarked) [td32-4P7, 2-(4-(7-(2-fluoro-4-(1-((4-fluorophenyl)carbamoyl)cyclopropane-1-carboxamide)phenoxy)thieno[3,2-b]pyridin-2-yl)-1H-pyrazolyl-1-yl)ethyl alaninate] | D (1 g of solute is soluble in 30~100 mL of sovent)
CSCCC(N)C(=O)OCCn1cc(-c2cc3nccc(Oc4ccc(NC(=O)C5(C(=O)Nc6ccc(F)cc6)CC5)cc4F)c3s2)cn1 (centres unmarked) [td32-4P11, 2-(4-(7-(2-fluoro-4-(1-((4-fluorophenyl)carbamoyl)cyclopropane-1-carboxamide)phenoxy)thieno[3,2-b]pyridin-2-yl)-1H-pyrazolyl-1-yl)ethyl methioninate] | E (1 g of solute is soluble in 100~1000 mL of sovent)
O=C(OCCn1cc(-c2cc3nccc(Oc4ccc(NC(=O)C5(C(=O)Nc6ccc(F)cc6)CC5)cc4F)c3s2)cn1)C1CCCN1 (centres unmarked) [td32-4P13, 2-(4-(7-(2-fluoro-4-(1-((4-fluorophenyl)carbamoyl)cyclopropane-1-carboxamide)phenoxy)thieno[3,2-b]pyridin-2-yl)-1H-pyrazolyl-1-yl)ethyl prolinate] | E (1 g of solute is soluble in 100~1000 mL of sovent)
NC(=O)CCC(N)C(=O)OCCn1cc(-c2cc3nccc(Oc4ccc(NC(=O)C5(C(=O)Nc6ccc(F)cc6)CC5)cc4F)c3s2)cn1 (centres unmarked) [td32-4P15, 2-(4-(7-(2-fluoro-4-(1-((4-fluorophenyl)carbamoyl)cyclopropane-1-carboxamide)phenoxy)thieno[3,2-b]pyridin-2-yl)-1H-pyrazolyl-1-yl)ethyl glutaminate] | D (1 g of solute is soluble in 30~100 mL of sovent)
NCC(=O)OCCn1cc(-c2cc3nccc(Oc4ccc(NC(=O)C5(C(=O)Nc6ccc(F)cc6)CC5)cc4F)c3s2)cn1 [td32-4P6, 2-(4-(7-(2-fluoro-4-(1-((4-fluorophenyl)carbamoyl)cyclopropane-1-carboxamide)phenoxy)thieno[3,2-b]pyridin-2-yl)-1H-pyrazolyl-1-yl)ethyl glycinate] | C (1 g of solute is soluble in 10~30 mL of sovent)
O=C(Nc1ccc(F)cc1)C1(C(=O)Nc2ccc(Oc3ccnc4cc(-c5cnn(CCOP(=O)(O)O)c5)sc34)c(F)c2)CC1 [td32-4P2, 2-(4-(7-(2-fluoro-4-(1-((4-fluorophenyl)carbamoyl)cyclopropane-1-carboxamide)phenoxy)thieno[3,2-b]pyridin-2-yl)-1H-pyrazolyl-1-yl)ethyl phosphate] | F (1 g of solute is soluble in 1000~10000 mL of sovent)
CN1CCN(Cc2cccc(C(=O)OCCn3cc(-c4cc5nccc(Oc6ccc(NC(=O)C7(C(=O)Nc8ccc(F)cc8)CC7)cc6F)c5s4)cn3)c2)CC1 [td32-4P22, 2-(4-(7-(2-fluoro-4-(1-((4-fluorophenyl)carbamoyl)cyclopropane-1-carboxamide)phenoxy)thieno[3,2-b]pyridin-2-yl)-1H-pyrazolyl-1-yl)ethyl 3-((methylpiperazin-1-yl)methyl) benzoate] | D (1 g of solute is soluble in 30~100 mL of sovent)
O=C(OCCn1cc(-c2cc3nccc(Oc4ccc(NC(=O)C5(C(=O)Nc6ccc(F)cc6)CC5)cc4F)c3s2)cn1)c1ccc(CN2CCCC2)cc1 [td32-4P23] | D (1 g of solute is soluble in 30~100 mL of sovent)
NC(=O)CC(N)C(=O)OCCn1cc(-c2cc3nccc(Oc4ccc(NC(=O)C5(C(=O)Nc6ccc(F)cc6)CC5)cc4F)c3s2)cn1 (centres unmarked) [td32-4P14, 2-(4-(7-(2-fluoro-4-(1-((4-fluorophenyl)carbamoyl)cyclopropane-1-carboxamide)phenoxy)thieno[3,2-b]pyridin-2-yl)-1H-pyrazolyl-1-yl)ethyl asparaginate] | D (1 g of solute is soluble in 30~100 mL of sovent)
NC(Cc1ccccc1)C(=O)OCCn1cc(-c2cc3nccc(Oc4ccc(NC(=O)C5(C(=O)Nc6ccc(F)cc6)CC5)cc4F)c3s2)cn1 [td32-4P12, 2-(4-(7-(2-fluoro-4-(1-((4-fluorophenyl)carbamoyl)cyclopropane-1-carboxamide)phenoxy)thieno[3,2-b]pyridin-2-yl)-1H-pyrazolyl-1-yl)ethyl L-phenylalaninate] | F (1 g of solute is soluble in 1000~10000 mL of sovent)
O=C(OCCn1cc(-c2cc3nccc(Oc4ccc(NC(=O)C5(C(=O)Nc6ccc(F)cc6)CC5)cc4F)c3s2)cn1)c1ccc(CN2CCOCC2)cc1 [td32-4P19, 2-(4-(7-(2-fluoro-4-(1-((4-fluorophenyl)carbamoyl)cyclopropane-1-carboxamide)phenoxy)thieno[3,2-b]pyridin-2-yl)-1H-pyrazolyl-1-yl)ethyl 4-(morpholinylmethyl) benzoate] | F (1 g of solute is soluble in 1000~10000 mL of sovent)
O=C(OCCn1cc(-c2cc3nccc(Oc4ccc(NC(=O)C5(C(=O)Nc6ccc(F)cc6)CC5)cc4F)c3s2)cn1)c1cccc(CN2CCCC2)c1 [td32-4P24] | D (1 g of solute is soluble in 30~100 mL of sovent)
CC(C)CC(N)C(=O)OCCn1cc(-c2cc3nccc(Oc4ccc(NC(=O)C5(C(=O)Nc6ccc(F)cc6)CC5)cc4F)c3s2)cn1 (centres unmarked) [td32-4P8, 2-(4-(7-(2-fluoro-4-(1-((4-fluorophenyl)carbamoyl)cyclopropane-1-carboxamide)phenoxy)thieno[3,2-b]pyridin-2-yl)-1H-pyrazolyl-1-yl)ethyl leucinate] | E (1 g of solute is soluble in 100~1000 mL of sovent)
O=C(CN1CCOCC1)OCCn1cc(-c2cc3nccc(Oc4ccc(NC(=O)C5(C(=O)Nc6ccc(F)cc6)CC5)cc4F)c3s2)cn1 [td32-4P5, 2-(4-(7-(2-fluoro-4-(1-((4-fluorophenyl)carbamoyl)cyclopropane-1-carboxamide)phenoxy)thieno[3,2-b]pyridin-2-yl)-1H-pyrazolyl-1-yl)ethyl 2-morpholine acetate] | C (1 g of solute is soluble in 10~30 mL of sovent)
O=C(OCCn1cc(-c2cc3nccc(Oc4ccc(NC(=O)C5(C(=O)Nc6ccc(F)cc6)CC5)cc4F)c3s2)cn1)c1cccc(CN2CCOCC2)c1 [td32-4P20, 2-(4-(7-(2-fluoro-4-(1-((4-fluorophenyl)carbamoyl)cyclopropane-1-carboxamide)phenoxy)thieno[3,2-b]pyridin-2-yl)-1H-pyrazolyl-1-yl)ethyl 3-(morpholinylmethyl) benzoate] | F (1 g of solute is soluble in 1000~10000 mL of sovent)
CN1CCN(Cc2ccc(C(=O)OCCn3cc(-c4cc5nccc(Oc6ccc(NC(=O)C7(C(=O)Nc8ccc(F)cc8)CC7)cc6F)c5s4)cn3)cc2)CC1 [td32-4P21, 2-(4-(7-(2-fluoro-4-(1-((4-fluorophenyl)carbamoyl)cyclopropane-1-carboxamide)phenoxy)thieno[3,2-b]pyridin-2-yl)-1H-pyrazol-1-yl)ethyl 4-((methylpiperazin-1-yl)methyl) benzoate] | D (1 g of solute is soluble in 30~100 mL of sovent)
CCN(CC)CC(=O)OCCn1cc(-c2cc3nccc(Oc4ccc(NC(=O)C5(C(=O)Nc6ccc(F)cc6)CC5)cc4F)c3s2)cn1 [td32-4P4, 2-(4-(7-(2-fluoro-4-(1-((4-fluorophenyl)carbamoyl)cyclopropane-1-carboxamide)phenoxy)thieno[3,2-b]pyridin-2-yl)-1H-pyrazolyl-1-yl)ethyldiethyl glycinate] | C (1 g of solute is soluble in 10~30 mL of sovent)
COC(CNCC(=O)OCCn1cc(-c2cc3nccc(Oc4ccc(NC(=O)C5(C(=O)Nc6ccc(F)cc6)CC5)cc4F)c3s2)cn1)OC [td32-4P17, 2-(4-(7-(2-fluoro-4-(1-((4-fluorophenyl)carbamoyl)cyclopropane-1-carboxamide)phenoxy)thieno[3,2-b]pyridin-2-yl)-1H-pyrazolyl-1-yl)ethyl(2,2-dimethoxyethyl) glycinate] | E (1 g of solute is soluble in 100~1000 mL of sovent)
CC(C(=O)OCCn1cc(-c2cc3nccc(Oc4ccc(NC(=O)C5(C(=O)Nc6ccc(F)cc6)CC5)cc4F)c3s2)cn1)N(C)C (centres unmarked) [td32-4P18, 2-(4-(7-(2-fluoro-4-(1-((4-fluorophenyl)carbamoyl)cyclopropane-1-carboxamide)phenoxy)thieno[3,2-b]pyridin-2-yl)-1H-pyrazolyl-1-yl)ethyl N,N-dimethyl alaninate] | D (1 g of solute is soluble in 30~100 mL of sovent)
CCC(C)C(N)C(=O)OCCn1cc(-c2cc3nccc(Oc4ccc(NC(=O)C5(C(=O)Nc6ccc(F)cc6)CC5)cc4F)c3s2)cn1 (centres unmarked) [td32-4P9, 2-(4-(7-(2-fluoro-4-(1-(4-fluorophenyl)carbamoyl)cyclopropane-1-carboxamide)phenoxy)thieno[3,2-b]pyridin-2-yl)-1H-pyrazolyl-1-yl)ethyl isoleucinate] | D (1 g of solute is soluble in 30~100 mL of sovent)

Test system: MKN-45 gastric cancer cells
Experiment: Gastric cancer cell MKN45 xenograft model
Format: in vivo, nude mice
Conditions: oral 100 mg·kg^−1 once a day for 14 days
Excerpt: • 1. Compounds (td32-4, td32-4P3, td32-4P6, td32-4P9, td32-4P10) were selected for in vivo activity evaluation at a single concentration. The animal model was gastric cancer cell MKN45 xenograft model.
Test method: 5×10^6 MKN-45 gastric cancer cells were inoculated under the fat pad of the right rib of nude mice, and the tumor formation was observed. Two weeks after the inoculation, the tumor-bearing mice were divided into groups and orally administered with td32-4, td32-4P3, td32-4P6, td32-4P9, and td32-4P10 at a dose of 100 mg·kg^−1, once a day for 14 days, respectively. Tumor volumes were measured with a caliper and recorded.

SMILES | tumor inhibitory effect (tumor volume)
NCC(=O)OCCn1cc(-c2cc3nccc(Oc4ccc(NC(=O)C5(C(=O)Nc6ccc(F)cc6)CC5)cc4F)c3s2)cn1 [td32-4P6, 2-(4-(7-(2-fluoro-4-(1-((4-fluorophenyl)carbamoyl)cyclopropane-1-carboxamide)phenoxy)thieno[3,2-b]pyridin-2-yl)-1H-pyrazolyl-1-yl)ethyl glycinate] | moderate inhibitory activity
CCC(C)C(N)C(=O)OCCn1cc(-c2cc3nccc(Oc4ccc(NC(=O)C5(C(=O)Nc6ccc(F)cc6)CC5)cc4F)c3s2)cn1 (centres unmarked) [td32-4P9, 2-(4-(7-(2-fluoro-4-(1-(4-fluorophenyl)carbamoyl)cyclopropane-1-carboxamide)phenoxy)thieno[3,2-b]pyridin-2-yl)-1H-pyrazolyl-1-yl)ethyl isoleucinate] | potent tumor inhibitory effect
